Values quoted from earlier work as cited in US10584074B2, “Microencapsulated nitrification inhibitor compositions” (Dow AgroSciences LLC, priority 2017, dated 2020).

Settings: at 23° Celsius

Clc1cccc(C(Cl)(Cl)Cl)n1 [nitrapyrin, 2-chloro-6-(trichloromethyl)pyridine]
vapor pressure: 2.8×10^−3 mm Hg
